Reference: PMC7321251 (Molecules, 2020)

Columns and labels:
[1] = target: T1, SPHK2 (Homo sapiens, UniProt Q9NRA0); test: Sphingosine kinase 2 activity assay (Adapta screening system); format: biochemical; conditions: 20 μM compound
T1 construct: purchased Thermo Fisher Scientific
T1 sequence (Q9NRA0 1-654): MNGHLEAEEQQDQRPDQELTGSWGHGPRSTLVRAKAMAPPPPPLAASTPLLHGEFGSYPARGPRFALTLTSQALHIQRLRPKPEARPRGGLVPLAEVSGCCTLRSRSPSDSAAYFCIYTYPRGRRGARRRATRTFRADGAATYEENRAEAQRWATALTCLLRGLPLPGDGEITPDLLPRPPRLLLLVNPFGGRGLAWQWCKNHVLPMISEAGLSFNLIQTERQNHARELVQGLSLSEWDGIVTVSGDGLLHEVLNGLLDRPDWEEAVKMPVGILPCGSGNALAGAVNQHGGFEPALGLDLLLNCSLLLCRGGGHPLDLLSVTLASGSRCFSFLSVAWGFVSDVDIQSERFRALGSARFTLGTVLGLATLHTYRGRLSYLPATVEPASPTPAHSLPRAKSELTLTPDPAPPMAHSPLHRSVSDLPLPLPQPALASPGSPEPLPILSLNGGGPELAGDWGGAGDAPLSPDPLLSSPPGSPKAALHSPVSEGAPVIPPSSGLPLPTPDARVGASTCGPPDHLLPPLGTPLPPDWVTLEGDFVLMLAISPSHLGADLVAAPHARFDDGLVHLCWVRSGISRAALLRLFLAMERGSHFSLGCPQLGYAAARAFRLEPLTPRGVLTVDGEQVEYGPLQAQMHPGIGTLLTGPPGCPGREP
Protocol: […]. The sphingosine kinase 1 activity assay used 0.04–0.16 ng SPHK1, 50 μM sphingosine lipid substrate in 32.5 mM HEPES pH 7.5, 0.005% BRIJ 35, 5 mM MgCl2, 0.5 mM ethylene glycol-bis(β-aminoethyl ether)-N,N,N′,N′-tetraacetic acid (EGTA). The sphingosine kinase 2 activity assay detected 35 - 140 ng SPHK2, 50 μM sphingosine lipid substrate in 32.5 mM HEPES pH 7.5, 0.5 mM EGTA, 1.5 mM MgCl2.

[2] = target: T2, SPHK1 (Homo sapiens, UniProt Q9NYA1); test: Sphingosine kinase 1 activity assay (Adapta screening system); format: biochemical; conditions: 20 μM compound; for SK1 inhibitory effect (in words): compared with PF-543; for inhibition at 20 µM: read-out: SK1 inhibition
T2 construct: purchased Thermo Fisher Scientific

[3] = target: SK2; set-up: method as in PMID 21940750; conditions: cited from earlier work
[4] = Liver microsomal stability, rat (RLM); format: in vitro ADME; conditions: rat liver microsomes, NADPH
Protocol: [Worded in the source for another species; this species is reported under the same test.] (§1) Microsomal incubations were conducted in triplicate in 0.1 M potassium phosphate buffer (pH 7.4) in a clean 1.5 mL eppendorf tube. […] HLM was added and the mixture was pre-incubated at 37 °C in a shaking incubator at approximately 350 rpm for 5 min under Thermo mixer (Eppendorf., Hamburg, Germany). Reactions were initiated by the addition of 1 mM NADPH and were then quenched by adding 40 µL of ice-cold acetonitrile containing 10 µM chlorproamide (CPP) as an internal standard at 0, 30 min. The incubation mixtures were then centrifuged at 15,000× g for 5 min at 4 °C. A 2 µL aliquot of the supernatant was directly injected into the LC-MS/MS system. The LC-MS/MS system consisted of the Nexera XR HPLC system (Shimadzu Co., Kyoto, Japan) coupled to the TSQ Vantage triple quadrupole mass spectrometer equipped with Xcalibur version 1.1.1 (Thermo Fisher Scientific Inc., Waltham, MA, USA).

[5] = Liver microsomal stability, mouse (MLM); format: in vitro ADME; conditions: mouse liver microsomes, NADPH
Protocol: [Worded in the source for another species; this species is reported under the same test.] as §1

[6] = Liver microsomal stability, human (HLM); format: in vitro ADME; conditions: human liver microsomes, NADPH
Protocol: as §1

[7] = Liver microsomal stability, dog (DLM); format: in vitro ADME; conditions: dog liver microsomes, NADPH
Protocol: [Worded in the source for another species; this species is reported under the same test.] as §1

T2 sequence (Q9NYA1 whole entry): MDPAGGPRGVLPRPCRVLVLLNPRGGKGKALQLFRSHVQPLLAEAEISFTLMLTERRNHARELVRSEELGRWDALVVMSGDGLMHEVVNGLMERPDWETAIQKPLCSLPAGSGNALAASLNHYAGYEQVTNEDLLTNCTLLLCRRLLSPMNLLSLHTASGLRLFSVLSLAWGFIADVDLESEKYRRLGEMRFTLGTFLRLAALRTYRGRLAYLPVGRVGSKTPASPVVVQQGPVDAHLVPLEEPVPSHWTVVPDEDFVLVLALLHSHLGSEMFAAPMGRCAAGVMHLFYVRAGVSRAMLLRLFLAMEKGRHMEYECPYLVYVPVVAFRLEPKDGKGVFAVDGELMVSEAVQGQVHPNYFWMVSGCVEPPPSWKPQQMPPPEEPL

| SMILES | SK1 inhibitory effect (in words) [2] | inhibition at 20 µM [2] | further results |
| --- | --- | --- | --- |
| O=S(=O)(Cc1cc(O)cc(OCc2ccc(CN3CCC[C@@H]3CO)cc2)c1)c1ccccc1 [compound 8, (R)-3-((4-((2-(Hydroxymethyl)pyrrolidin-1-yl)methyl)benzyl)oxy)-5-((phenylsulfonyl)methyl)phenol] |  |  | SK2 inhibitory effect (in words) [1]: showed an inhibitory effect against SK2 alone |
| O=S(=O)(Cc1cccc(OCc2ccc(CN3CCC(O)CC3)cc2)c1)c1ccccc1 [compound 4, 1-(4-((3-((Phenylsulfonyl)methyl)phenoxy)methyl)benzyl)piperidin-4-ol] | reduced |  |  |
| O=S(=O)(Cc1cccc(OCc2ccc(CN3CC[C@H](O)C3)cc2)c1)c1ccccc1 [compound 3, (S)-1-(4-((3-((Phenylsulfonyl)methyl)phenoxy)methyl)benzyl)pyrrolidin-3-ol] |  | 100% |  |
| CCCCCCCCc1ccc(CC[C@@](N)(CO)COC)cc1 [ROME, (R)-FTY720-OMe] |  |  | Ki [3]: 16 µM |
| O=S(=O)(Cc1cc(O)cc(OCc2ccc(CN3CCC(O)CC3)cc2)c1)c1ccccc1 [compound 10, 1-(4-((3-Hydroxy-5-((phenylsulfonyl)methyl)phenoxy)methyl)benzyl)piperidin-4-ol] | reduced |  |  |

More lines, main results first:

| SK1 inhibitory effect (in words) [2] | inhibition at 20 µM [2] | SMILES | further results |
| --- | --- | --- | --- |
|  | 100% | O=S(=O)(Cc1cc(F)cc(OCc2ccc(CN3CCC[C@@H]3CO)cc2)c1)c1ccccc1 [compound 5, (R)-(1-(4-((3-Fluoro-5-((phenylsulfonyl)methyl)phenoxy)methyl)benzyl)pyrrolidin-2-yl)methanol] | RLM microsomal stability (% remaining during 30 min) [4]: 6.8 % remaining; MLM microsomal stability (% remaining during 30 min) [5]: 9.8 % remaining; HLM microsomal stability (% remaining during 30 min) [6]: 7.6 % remaining; DLM microsomal stability (% remaining during 30 min) [7]: 5.5 % remaining |
| reduced |  | O=S(=O)(Cc1cc(F)cc(OCc2ccc(CN3CCC(O)CC3)cc2)c1)c1ccccc1 [compound 7, 1-(4-((3-Fluoro-5-((phenylsulfonyl)methyl)phenoxy)methyl)benzyl)piperidin-4-ol] |  |
|  | 100% | O=S(=O)(Cc1cc(F)cc(OCc2ccc(CN3CC[C@H](O)C3)cc2)c1)c1ccccc1 [compound 6, (S)-1-(4-((3-fluoro-5-((phenylsulfonyl)methyl)phenoxy)methyl)benzyl)pyrrolidin-3-ol] |  |
|  | 100% | O=S(=O)(Cc1cccc(OCc2ccc(CN3CCC[C@@H]3CO)cc2)c1)c1ccccc1 [compound 2, (R)-(1-(4-((3-((Phenylsulfonyl)methyl)phenoxy)methyl)benzyl)pyrrolidin-2-yl)methanol] |  |
